ChEMBL document CHEMBL1201862, “PubChem BioAssay data set” (2004)
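Protocol summary: plate cells (96-well), add compound at 5 concentrations, incubate 48 h, interpolate endpoints linearly. GI50 marks 50% less growth.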 Calls of active or inactive are those of the source. No stated cut-off is given here; in the data, active = GI50 up to about 1.1 µM and inactive = higher.

How the values were obtained:
Assay in all cases: NCI tumour cell line growth inhibition, 48 h
SNB-75 = test system: SNB-75
IGROV-1 = test system: IGROV-1
HCT-116 = test system: HCT-116
SK-OV-3 = test system: SK-OV-3
CAKI-1 = test system: CAKI-1
NCI-H23 = test system: NCI-H23
RXF 393 = test system: RXF 393
EKVX = test system: EKVX
HCC 2998 = test system: HCC 2998
M14 = test system: M14
RPMI-8226 = test system: RPMI-8226
K562 = test system: K562
SNB-19 = test system: SNB-19
SN12C = test system: SN12C
LOX IMVI = test system: LOX IMVI
MOLT-4 = test system: MOLT-4
SF-295 = test system: SF-295
A549 = test system: A549
OVCAR-3 = test system: OVCAR-3
HOP-62 = test system: HOP-62

Measured: GI50

CC1=C(C)C(=O)OC(C(C)(O)C2(O)CCC3(O)C4CC(Cl)C5(O)C(O)C=CC(=O)C5(C)C4CCC32C)C1 (stereo not given)
inactive: SNB-75 4.25 µM | IGROV-1 49.3 µM | HCT-116 19.1 µM | SK-OV-3 41.6 µM | CAKI-1 12.2 µM | NCI-H23 64.7 µM | RXF 393 18.5 µM | EKVX 53.7 µM | HCC 2998 27.1 µM | M14 40.3 µM | RPMI-8226 8.99 µM | K562 12.3 µM | SNB-19 49.8 µM | SN12C 61 µM | LOX IMVI 14.9 µM | MOLT-4 10.1 µM | SF-295 30.3 µM | A549 69.3 µM | OVCAR-3 52.8 µM | HOP-62 > 100 µM

C=CC(OC(C)=O)c1ccc(OC(C)=O)cc1 (stereo not given)
inactive: SNB-75 3.88 µM | IGROV-1 15.7 µM | HCT-116 7.05 µM | SK-OV-3 17.5 µM | CAKI-1 4.88 µM | NCI-H23 17 µM | RXF 393 14 µM | EKVX 13.8 µM | HCC 2998 7.01 µM | M14 10.5 µM | RPMI-8226 2.25 µM | K562 20 µM | SNB-19 13.9 µM | SN12C 2.1 µM | LOX IMVI 2.88 µM | MOLT-4 3.31 µM | SF-295 7.62 µM | A549 19.8 µM | OVCAR-3 6.11 µM | HOP-62 3.82 µM

c1ccc2c3c([nH]c2c1)C1(CCCCC1)c1c([nH]c2ccccc12)C31CCCCC1
inactive: SNB-75 15.9 µM | IGROV-1 31.3 µM | HCT-116 15.7 µM | SK-OV-3 18.2 µM | CAKI-1 38.6 µM | NCI-H23 31 µM | RXF 393 25.4 µM | EKVX 26.2 µM | HCC 2998 32.3 µM | M14 30 µM | RPMI-8226 56.8 µM | K562 35.6 µM | SNB-19 54.5 µM | SN12C 22.9 µM | LOX IMVI 34.4 µM | MOLT-4 47.5 µM | SF-295 24.7 µM | A549 39.3 µM | OVCAR-3 > 100 µM | HOP-62 19.5 µM

CC1(C)O[C@@H]2[C@@H]3OC(=O)C[C@@H]3[C@@H](COCc3ccccc3)[C@@H]2O1
inactive: SNB-75 > 100 µM | IGROV-1 > 100 µM | HCT-116 > 100 µM | SK-OV-3 > 100 µM | CAKI-1 > 100 µM | NCI-H23 > 100 µM | RXF 393 > 100 µM | EKVX > 100 µM | HCC 2998 > 100 µM | M14 > 100 µM | RPMI-8226 > 100 µM | K562 > 100 µM | SNB-19 > 100 µM | SN12C > 100 µM | LOX IMVI > 100 µM | MOLT-4 > 100 µM | SF-295 > 100 µM | A549 > 100 µM | OVCAR-3 > 100 µM | HOP-62 > 100 µM

OC(NN=C1CCCC1)(C(F)(F)Cl)C(F)(F)Cl
inactive: SNB-75 > 10 µM | IGROV-1 > 10 µM | HCT-116 > 10 µM | SK-OV-3 > 10 µM | CAKI-1 > 10 µM | NCI-H23 > 10 µM | RXF 393 > 10 µM | EKVX > 10 µM | HCC 2998 > 10 µM | M14 > 10 µM | RPMI-8226 > 10 µM | K562 > 10 µM | SNB-19 > 10 µM | SN12C > 10 µM | LOX IMVI > 10 µM | MOLT-4 > 10 µM | SF-295 > 10 µM | A549 > 10 µM | OVCAR-3 > 10 µM | HOP-62 > 10 µM
